Laboratory results taken from the NIST ThermoML archive (doi:10.1016/j.fluid.2018.03.018).
Numbers after ± are expanded uncertainties.

Assay: xn = mol fraction of the nth substance listed
Conditions: 101 kPa, Liquid, Vibrating tube method

Row | mass density (298.15 K, x1 = 0.25) [kg/m3] | mass density (303.15 K, x1 = 0.25) [kg/m3] | mass density (308.15 K, x1 = 0.25) [kg/m3] | mass density (313.15 K, x1 = 0.25) [kg/m3] | mass density (318.15 K, x1 = 0.25) [kg/m3] | mass density (323.15 K, x1 = 0.25) [kg/m3] | Compound | mass density (293.15 K, x1 = 0.3333) [kg/m3] | mass density (298.15 K, x1 = 0.3333) [kg/m3] | mass density (303.15 K, x1 = 0.3333) [kg/m3] | mass density (308.15 K, x1 = 0.3333) [kg/m3] | mass density (313.15 K, x1 = 0.3333) [kg/m3] | mass density (318.15 K, x1 = 0.3333) [kg/m3] | mass density (323.15 K, x1 = 0.3333) [kg/m3] | mass density (328.15 K, x1 = 0.3333) [kg/m3] | mass density (333.15 K, x1 = 0.3333) [kg/m3] | mass density (338.15 K, x1 = 0.3333) [kg/m3] | mass density (343.15 K, x1 = 0.3333) [kg/m3]
1 |  |  |  |  |  |  | CC[N+](CC)(CC)CC.[Cl-] [tetraethylammonium chloride] + OCCO | 1052.3 ± 1 | 1049.4 ± 1 | 1046.6 ± 1 | 1043.7 ± 1 | 1040.9 ± 1 | 1038.1 ± 1 | 1035.3 ± 1 | 1032.5 ± 1 | 1029.7 ± 1 | 1026.9 ± 1 | 1024.1 ± 1
2 | 1295.8 ± 1.1 | 1292.4 ± 1.1 | 1288.9 ± 1.1 | 1285.3 ± 1.1 | 1281.7 ± 1.1 | 1278.1 ± 1.1 | C[P+](c1ccccc1)(c1ccccc1)c1ccccc1.[Br-] [methyltriphenylphosphonium bromide] + OCC(O)CO |  |  |  |  |  |  |  |  |  |  | 
3 |  |  |  |  |  |  | CC[N+](CC)(CC)CC.[Cl-] [tetraethylammonium chloride] + OCC(O)CO | 1124 ± 1 | 1121 ± 1 | 1118.1 ± 1 | 1115.1 ± 1 | 1112.3 ± 1 | 1109.4 ± 1 | 1106.6 ± 1 | 1103.8 ± 1 | 1101 ± 1 | 1098.2 ± 1 | 1095.4 ± 1
4 | 1249.1 ± 1.1 | 1245.7 ± 1.1 | 1242.2 ± 1.1 | 1238.8 ± 1.1 | 1235.4 ± 1.1 | 1231.9 ± 1.1 | C[P+](c1ccccc1)(c1ccccc1)c1ccccc1.[Br-] [methyltriphenylphosphonium bromide] + OCCO |  |  |  |  |  |  |  |  |  |  | 
